Assay results taken from US20170348269A1, “TREATMENT OF UREA CYCLE DISORDERS IN NEONATES AND INFANTS” (Horizon Therapeutics, LLC, priority 2016, published 2017).
Where “and” joins values, the source holds several entries; their conditions need not be identical. Identical values can stand only once.

Columns and labels:
[1] = HPN-100-005 pharmacokinetics of HPN-100 and NaPBA in pediatric UCD patients; assay type: in vivo, human; settings: HPN-100-005 (N = 11)
Description: The pharmacokinetics of the short term studies can be summarized as follows. Mean exposure levels of HPN-100 metabolites PBA, PAA, and PAGN after doses of HPN-100 and NaPBA with meals (TID) in pediatric (29 days to 17 years of age) UCD patients in HPN-100-005 and HPN-100-012 studies are summarized below. The mean exposure to PBA, the parent metabolite, and mean exposure to PAGN, the terminal metabolite, show no systematic variation across age groups, while PAA exposure tended to decrease with increasing age, a finding consistent with those from population PK modeling which indicate that the rate of clearance/metabolism of PAA varies directly with body size. While systemic metabolite exposure, assessed as peak plasma concentration (Cmax) or AUC, is generally similar for HPN-100 and NaPBA, the minimum concentration (Cmin-ss) was higher—and/or percent-fluctuation less—for plasma PAGN, a finding consistent with slower gastrointestinal absorption of PBA when administered orally as HPN-100.

[2] = test system: venous ammonia in pediatric patients with UCDs; assay: Study 6, uncontrolled open-label study in children under 2 years of age; assay type: in vivo, human
Experimental: Uncontrolled, open-label studies were conducted to assess monthly ammonia control and hyperammonemic crisis of RAVICTI® in pediatric patients with UCDs 2 months to less than 2 years of age (Study 4/4E, Study 5, and Study 6). Patients in Study 5 previously participated in Study 4/4E. A total of 17 pediatric patients with UCDs aged 2 months to less than 2 years participated in the studies.
A total of 10 pediatric patients with UCDs aged 2 months to less than 2 years participated in Study 6, of which 7 patients converted from sodium phenylbutyrate to RAVICTI®. The dosage of RAVICTI® was calculated to deliver the same amount of PBA as the sodium phenylbutyrate dosage the patients were taking when they entered the trial. Two patients were treatment naïve and received RAVICTI® dosage of 7.5 mL/m^2/day and 9.4 mL/m^2/day, respectively. One additional patient was gradually discontinued from intravenous sodium benzoate and sodium phenylacetate while RAVICTI® was initiated. The dosage of RAVICTI® after transition was 8.5 mL/m^2/day.
In Study 6, there were 9, 7 and 3 pediatric patients who completed 1, 3 and 6 months, respectively (mean and median exposure of 4 and 5 months, respectively).
Patients received a mean RAVICTI® dose of 8 mL/m^2/day (8.8 g/m^2/day), with doses ranging from 4.8 to 11.5 mL/m^2/day (5.3 to 12.6 g/m^2/day). Patients were dosed three times a day (n=6), four times a day (n=2), or five or more times a day (n=2).
The primary efficacy endpoint was successful transition to RAVICTI® within a period of 4 days followed by 3 days of observation for a total of 7 days, where successful transition was defined as no signs and symptoms of hyperammonemia and a venous ammonia value less than 100 micromol/L. Venous ammonia levels were monitored for up to 4 days during transition and on day 7. Nine patients successfully transitioned as defined by the primary endpoint. One additional patient developed hyperammonemia on day 3 of dosing and experienced surgical complications (bowel perforation and peritonitis) following jejunal tube placement on day 4. This patient developed hyperammonemic crisis on day 6, and subsequently died of sepsis from peritonitis unrelated to drug. Although two patients had day 7 ammonia values of 150 micromol/L and 111 micromol/L respectively, neither had associated signs and symptoms of hyperammonemia.
During the extension phase, venous ammonia levels were monitored monthly. Ammonia values across different laboratories were normalized (transformed) to a common normal pediatric range of 28 to 57 micromol/L for comparability. The mean normalized venous ammonia values in pediatric patients at month 1, 2, 3, 4, 5 and 6 were 67, 53, 78, 99, 56 and 61 micromol/L during treatment with RAVICTI®, respectively. Three patients reported a total of 7 hyperammonemic crises defined as having signs and symptoms consistent with hyperammonemia (such as frequent vomiting, nausea, headache, lethargy, irritability, combativeness, and/or somnolence) associated with high venous ammonia levels and requiring medical intervention. Hyperammonemic crises were precipitated by vomiting, upper respiratory tract infection, gastroenteritis, decreased caloric intake or had no identified precipitating event (3 events). There were three additional patients who had one venous ammonia level that exceeded 100 micromol/L which was not associated with a hyperammonemic crisis.

[3] = test system: pancreatic lipase-related protein; settings: cited from earlier work
[4] = molecular target: T1, bile salt-stimulated lipase (Homo sapiens, UniProt P19835); settings: cited from earlier work
T1 sequence (P19835 21-753): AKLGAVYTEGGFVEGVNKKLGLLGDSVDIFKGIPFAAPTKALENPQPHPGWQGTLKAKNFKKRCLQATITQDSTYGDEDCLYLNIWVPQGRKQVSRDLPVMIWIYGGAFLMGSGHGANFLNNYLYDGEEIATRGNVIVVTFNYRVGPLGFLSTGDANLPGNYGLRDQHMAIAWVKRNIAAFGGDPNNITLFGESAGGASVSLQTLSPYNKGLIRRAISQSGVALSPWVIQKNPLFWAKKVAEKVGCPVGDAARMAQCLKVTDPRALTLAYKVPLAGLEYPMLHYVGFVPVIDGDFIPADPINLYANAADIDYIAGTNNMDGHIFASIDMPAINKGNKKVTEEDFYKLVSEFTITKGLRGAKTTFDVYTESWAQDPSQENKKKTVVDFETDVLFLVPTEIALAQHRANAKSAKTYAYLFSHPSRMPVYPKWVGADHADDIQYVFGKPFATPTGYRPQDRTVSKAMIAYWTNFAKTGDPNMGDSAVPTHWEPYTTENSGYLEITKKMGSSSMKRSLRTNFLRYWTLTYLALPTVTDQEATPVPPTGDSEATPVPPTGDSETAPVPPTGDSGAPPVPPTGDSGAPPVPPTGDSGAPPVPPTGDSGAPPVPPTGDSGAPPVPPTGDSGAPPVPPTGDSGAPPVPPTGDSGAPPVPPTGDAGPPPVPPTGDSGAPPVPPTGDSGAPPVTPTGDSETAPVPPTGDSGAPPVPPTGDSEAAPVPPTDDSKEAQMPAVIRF

[5] = pediatric UCD patients, TID with meals, arithmetic mean
[6] = Study 6 extension phase, normalized to 28 to 57 micromol/L

Plasma PAA CLss/F [1, 5]: 15082 mL/min | Plasma PBA CLss/F [1, 5]: 20545 mL/min | Plasma PAGN CLss/F ([1]; pediatric UCD patients, TID with meals, arithmetic mean (CV %)): 14237 mL/min | U-PAGN Ae0-12 ([1]; urinary PAGN excreted 0-12 h, arithmetic mean): 5611719 µg | U-PAGN Ae12-24 ([1]; urinary PAGN excreted 12-24 h, arithmetic mean): 6889318 µg
Structure (SMILES): O=C(CCCc1ccccc1)OCC(COC(=O)CCCc1ccccc1)OC(=O)CCCc1ccccc1 [HPN-100, benzenebutanoic acid, 1′,1″-(1,2,3-propanetriyl) ester]
U-PAGN Ae ([1]; urinary PAGN excreted, arithmetic mean): 12501037 µg | additional patients with one venous ammonia level exceeding 100 micromol/L not associated with a hyperammonemic crisis ([2]; Study 6): three | patients successfully transitioned (no signs and symptoms of hyperammonemia and venous ammonia less than 100 micromol/L) ([2]; Study 6, 10 patients 2 months to <2 years, 7 days): Nine | day 7 ammonia values of two individual patients ([2]; Study 6, no associated signs and symptoms of hyperammonemia, listed as RAVICTI®): 150 µmol/L and 111 µmol/L | total hyperammonemic crises ([2]; Study 6, reported by three patients): 7 | mean normalized venous ammonia, month 1 [2, 6]: 67 µmol/L | mean normalized venous ammonia, month 2 [2, 6]: 53 µmol/L | mean normalized venous ammonia, month 3 [2, 6]: 78 µmol/L | mean normalized venous ammonia, month 4 [2, 6]: 99 µmol/L | mean normalized venous ammonia, month 5 [2, 6]: 56 µmol/L | mean normalized venous ammonia, month 6 [2, 6]: 61 µmol/L | hydrolysis in vitro by pancreatic lipase-related protein [3]: hydrolyze | hydrolysis in vitro by bile salt-stimulated lipase [4]: hydrolyze
